Going from `CC(C)CN1C(=O)CC2CCC(C)C3CCC4(C)OOC23C1O4` (stereo not given) to `CC(C)CCN1C(=O)CC2CCC(C)C3CCC4(C)OOC23C1O4` (stereo not given), the logP rises from 3.66 to 4.16.

Compared with `CCCN1C(=O)CC2CCC(C)C3CCC4(C)OOC23C1O4` (stereo not given), `CCCCCN1C(=O)CC2CCC(C)C3CCC4(C)OOC23C1O4` (stereo not given) is higher in logP: 3.41 for the first, 4.24 for the second.

First: CC1CCC2CC(=O)N(CCCc3ccccc3)C3OC4(C)CCC1C23OO4 (stereo not given)
Second: CC1CCC2CC(=O)N(CCc3ccccc3)C3OC4(C)CCC1C23OO4 (stereo not given)
The logP of the first is higher: 4.39 for the first, 3.94 for the second.

Compared with `C[C@@H]1CC[C@H]2[C@@H](C)C(=O)O[C@@H]3O[C@@]4(C)CC[C@@H]1[C@]32OO4` (relative stereo), `C[C@@H]1CC[C@H]2[C@@H](C)CO[C@@H]3O[C@]4(C)CC[C@@H]1[C@]32OO4` is higher in logP: 2.9 for the first, 3.16 for the second.

Compared with `CC1CCC2CC(=O)N(Cc3ccc(Cl)cc3)C3OC4(C)CCC1C23OO4` (stereo not given), `CC1CCC2CC(=O)N(CC(=O)O)C3OC4(C)CCC1C23OO4` (stereo not given) is lower in logP: 4.32 for the first, 1.75 for the second.
